Results: patent US5212167A, “Modulation of receptor-mediated ion transport” (Trustees of Boston University, priority 1991, dated 1993)
Counter-ions that a name gives are not always drawn.

Assays:
NMDA receptor = experiment: Whole-cell patch clamp, NMDA-induced currents in cultured chick spinal cord neurons; conditions: for enhancement of the NMDA response (percent change): 100 μM pregnenolone sulfate
Experimental: (§1) Cultures of dissociated spinal cord neurons were prepared from 7-day chick embryos as described by Wu et al. (Mol. Pharmacol. 37:597-602 (1990)). Briefly, dissociated cells were plated on collagen-coated 35-mm tissue culture dishes in Eagle's minimum essential medium supplemented with 2.4 mM glutamine, 10% (v/v) heat-inactivated horse serum, 5% (v/v) chick embryo extract, 100 units/ml penicillin, and 100 μg/ml streptomycin. Cultures were maintained in a humidified atmosphere of 5% CO2 /95% air at 37° C. Cytosine arabinoside (1 μM) was added after 36 hours to control the proliferation of non-neuronal cells. This medium was removed one day later and replaced with a similar medium supplemented with 20.5 mM glucose and 18 mM KCl, and containing 2.5% chick embryo extract. Fresh medium was added twice weekly. Cultured neurons were used in experiments 2-4 weeks after plating.
(§2) Electrophysiological experiments were carried out in 35-mm tissue culture dishes on the stage of an inverted phase-contrast microscope. Whole-cell currents were recorded by the whole-cell variant of the patch clamp technique described by Hamill et al. (Pflugers Arch. 391:85-100 (1981)). Patch electrodes were fabricated with a double pull from thin-wall borosilicate glass microcapillary pipets (Fischer) on a David Kopf vertical pipet puller (Model 700D). Electrode resistance was 5.2±0.12 M.OMEGA. (n=65) when filled with intracellular solution. The electrode solution usually contained (in mM): 10 KCl, 3 sodium gluconate, 140 potassium gluconate, 11 EGTA and 10 HEPES (pH adjusted to 7.2 with KOH). For GABA experiments, a high Cl-intracellular solution (in mM, 140 KCl, 3 NaCl, 1 MgCl2, 11 EGTA and 10 HEPES, pH adjusted to 7.2 with KOH) was used. The bath solution contained (in mM): 150 NaCl, 4 KCl, 1 CaCl2, 1 MgCl2 and 10 HEPES (pH adjusted to 7.2 with NaOH). Since NMDA-induced currents are subject to voltage-dependent block by extracellular Mg^2+, no magnesium salts were added to the bath solution. All experiments were performed at room temperature (23°-25° C.).
Recordings were made using a Yale MK V amplifier. After forming a tight seal (typically 1-10 G.OMEGA.) capacitative transients were minimized. The patch of membrane under the pipet tip was then ruptured by gentle suction to obtain the whole-cell configuration. Cells with series resistance greater than 10 M.OMEGA. were rejected. Series resistance, which initially measured 7.3± 0.14 M.OMEGA. (n=65), was compensated (>60%). Only cells with resting membrane potential more negative than -55 mV and input resistance in excess of 150 M.OMEGA. were used. All recordings were made with the cell membrane potential clamped at -70 mV. Currents were filtered at 1 kHz using an 8-pole Bessel filter and digitized (40 ms/point) using an on-line data acquisition system (pClamp, Axon Instruments).
Drug solutions were applied to single neurons by pressure ejection (15 psi) from 7-barrel pipets (Choi et al., J. Neurophysiol 45:605-620 (1981) and Chan, C. Y. and D. H. Farb, J. Neurosci. 5:2365-2373 (1985)). Pipets were pulled from Omega dot tubing to a tip diameter of about 1 μm per barrel and broken back to about 3-5 μm per barrel after filling. Seven-barrel pressure pipets were positioned approximately 50μm from the neuronal soma. Under these conditions, the drug solution in the pressure pipet rapidly and effectively replaces the solution surrounding the target neuron, with less than 10% dilution (Choi and Fischbach, J. Neurophysiol. 45:605-620 (1981)).
All drugs were obtained from Sigma, with the exception of AMPA hydrobromide (Research Biochemicals) and pregnenolone sodium sulfate (Steraloids). Stock solutions of steroids were prepared in dimethyl sulfoxide (final concentration, 0.5%, v/v).

[1] = tested on: non-NMDA glutamate receptor; experiment: Whole-cell patch clamp, kainate- or AMPA-induced currents in cultured chick spinal cord neurons; format: cell-based
Experimental: as §1
as §2, with “All experiments were performed at room temperature (23°-25° C.).” left out
(§3) Recordings were made using a Yale MK V amplifier. […] Series resistance, which initially measured 7.3± 0.14 M.OMEGA. […]

glycine receptor = experiment: Whole-cell patch clamp, glycine-induced currents in cultured chick spinal cord neurons; format: cell-based; conditions: for inhibition of the glycine response: 50 μM glycine, n=6
Experimental: as §1
as §2, with “All experiments were performed at room temperature (23°-25° C.).” left out
as §3

GABA receptor = experiment: Whole-cell patch clamp, GABA-induced currents in cultured chick spinal cord neurons; format: cell-based
Experimental: as §1
Electrophysiological experiments were carried out in 35-mm tissue culture dishes on the stage of an inverted phase-contrast microscope. Whole-cell currents were recorded by the whole-cell variant of the patch clamp technique described by Hamill et al. (Pflugers Arch. 391:85-100 (1981)). […]
as §3

`C[C@]12CCC(=O)C=C1CC[C@@H]1[C@@H]2[C@@H](O)C[C@@]2(C)[C@H]1CC[C@]2(O)C(=O)CO` [Hydrocortisone, reference compound] was tested, and the “enhancement of NMDA-induced current (in words)” value (NMDA receptor; 100 μM steroid) was “failed to enhance” and the “inhibition of the NMDA response” value (NMDA receptor; 100 μM steroid, n=6, mean ±SEM) was 15±2.4%.

For `NCC(=O)O` [glycine, reference compound], the “potentiation of the NMDA response by glycine in the presence of pregnenolone sulfate” value (NMDA receptor; 10 μM glycine, 100 μM pregnenolone sulfate present) was “still evident”.

For `CC(=O)C1CCC2C3CC=C4CC(OS(=O)(=O)O)CCC4(C)C3CCC12C` (centres unmarked) [pregnenolone sulfate], the “effect on response elicited by AMPA” value ([1]; AMPA-induced current) was “slightly inhibited”, the “effect on response elicited by kainate” value ([1]; kainate-induced current) was “slightly inhibited” and the “effect on non-NMDA glutamate-induced activity (in words)” value ([1]; summary statement) was “inhibited”. The “inhibition of the glycine response” value (glycine receptor; 5 μM pregnenolone sulfate) was 61±2%, the “inhibition of the glycine response” value (glycine receptor; 100 μM pregnenolone sulfate) was 91±2% and the “effect on glycine receptor-mediated ion channel activity (in words)” value (glycine receptor; summary statement) was “slight decrease”. For the same compound, the EC50 (GABA receptor; FIG. 2 dose response, read-out: EC50 for inhibition of the GABA response) was 7 µM, the “effect on GABA receptor-mediated ion channel activity (in words)” value (GABA receptor; summary statement) was “slight decrease” and the “potentiation of the NMDA response in the presence of maximal glycine versus without added glycine” value (NMDA receptor; 10 μM glycine present) was “did not differ significantly”. For the same compound, the “increase of response to NMDA” value (NMDA receptor; 30 μM NMDA, 100 μM steroid, -70 mV) was “approximately threefold”, the “enhancement of the NMDA response (percent change)” value (NMDA receptor; 100 μM NMDA, n=4, mean ±SEM) was 86±7.5% and the “enhancement of the NMDA response (percent change)” value (NMDA receptor; 1 mM NMDA, n=2, mean ±SEM) was 1.3±1.3%. For the same compound, the “increase in the ionic current across the cellular membrane” value (NMDA receptor; appropriate concentration (summary statement)) was 3 fold and the EC50 (NMDA receptor; read-out: EC50 for enhancement of the NMDA response, FIG. 2 dose response) was 57 µM.
